Tests used:
[1] = target: T1, human secreted PLA2 (Homo sapiens, UniProt P14555); test: Chromogenic assay, inhibition of recombinant human secreted phospholipase A2; type: biochemical; details: recombinant human sPLA2, diheptanoyl thio-PC substrate, pH 7.5, 40° C., 30 minutes, 405 nm; ± mean deviation (3-4 tests)
T1 sequence (P14555 21-144): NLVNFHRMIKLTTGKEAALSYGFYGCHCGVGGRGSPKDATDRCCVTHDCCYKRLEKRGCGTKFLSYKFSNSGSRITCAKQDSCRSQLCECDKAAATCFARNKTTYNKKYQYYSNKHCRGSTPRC
From the text: The following chromogenic assay procedure was used to identify and evaluate inhibitors of recombinant human secreted phospholipase A2. The assay described herein has been adapted for high volume screening using 96 well microtiter plates. A general description of this assay method is found in the article, "Analysis of Human Synovial Fluid Phospholipase A2 on Short Chain Phosphatidylcholine-Mixed Micelles: Development of a Spectrophotometric Assay Suitable for a Microtiterplate Reader", by Laure J. Reynolds, Lori L. Hughes, and Edward A Dennis, Analytical Biochemistry,204, pp. 190-197, 1992 (the disclosure of which is incorporated herein by reference):
Bovine Serum Albumin (fatty acid free) (1 g/L) (Sigma A-7030, product of Sigma Chemical Co. St. Louis Mo., USA)
racemic 1,2-bis(heptanoylthio)-1,2-dideoxy-sn-glycero-3-phosphorylcholine
A measured volume of racemic dipheptanoyl thio PC supplied in chloroform at a concentration of 100 mg/ml is taken to dryness and redissolved in 10 millimolar TRITON X 100™ nonionic detergent aqueous solution. Reaction Buff added to the solution, then DTNB to give the Reaction Mixture.
The reaction mixture thus obtained contains […] diheptanoly thio-PC substrate, 0.29 mm Triton X-100™ detergent, and 0.12 mm DTMB in a buffered aqueous solution at pH 7.5.
1. Add 0.2 ml reaction mixture to all wells;
2. Add 10 ul test compound (or solvent blank) to appropriate wells, mix 20 seconds;
3. Add 50 nanograms of sPLA2 (10 microliters) to appropriate wells;
4. Incubate plate at 40° C. for 30 minutes;
5. Read absorbance of wells at 405 nanometers with an automatic plate reader.
All compounds were tested in triplicate. Typically, compounds were tested am a final concentration of 5 ug/ml. […] Lack of color development at 405 nanometers evidenced inhibition. Compounds initially found to be active were reassayed to confirm their activity and, if sufficiently active, IC50 values were determined. […] In all cases, % inhibition measured at 405 nanometers generated by enzyme reactions containing inhibitors relative to the uninhibited control reactions was determined. Each sample was titrated in triplicate and result values were averaged for plotting and calculation of IC50 values. IC50 were determined by plotting log concentration versus inhibition values in the range from 10-90% inhibition.

[2] = target: T2, Human Secreted Phospholipase A2 (Homo sapiens, UniProt P14555); test: Human secreted phospholipase A2 inhibition tests on guinea pig lung tissue (pleural strip contraction); type: tissue-based; details: guinea pig lung pleural strips, sPLA2-induced contraction, 37° C., compound added 30 min. prior; Schild slope 1, apparent KB = dissociation constant of the inhibitor; read-out: Tissue test secreted PLA2, Apparent KB
T2 sequence (P14555 21-144): T1 sequence (P14555 21-144)
From the text: Male Hartley strain guinea pigs (500-700 g) were killed by cervical dislocation and their heart and lungs removed intact and placed in aerated (95% 02 :5% CO2) Krebs buffer. Dorsal pleural strips (4×1×25 mm) were dissected from intact parenchymal segments (8×4×25 mm) cut parallel to the outer edge of the lower lung lobes. Two adjacent pleural strips, obtained from a single lobe and representing a single tissue sample, were tied at either end and independently attached to a metal support rod. One rod was attached to a Grass force-displacement transducer (Model FTO3C, product of Grass Medical Instruments Co., Quincy, Mass., USA). […] All tissues were placed in 10 ml jacketed tissue baths maintained at 37° C. The tissue baths were continuously aerated and contained a modified Krebs solution of the following composition (millimolar) NaCl, 118.2; KCl, 4.6; CaCl2.2H2 O, 2.5; MgSO4.7H2 O, 1.2; NaHCO3, 24.8; KH2 PO4, 1.0; and dextrose, 10.0. Pleural strips from the opposite lobes of the lung were used for paired experiments.
Initially tissues were challenged 3 times with KCl (40 mM) to test tissue viability and to obtain a consistent response. After recording the maximal response to KCl, the Elssues were washed and allowed to return to baseline before the next challenge. Cumulative concentration-response curves were obtained from pleural strips by increasing the agonist concentration (sPLA2) in the tissue bath by half-log10 increments while the previous concentration remained in contact with the tissues (Ref.1, supra.) Agonist concentration was increased after reaching the plateau of the contraction elicited by the preceding concentration. One concentration-response curve was obtained from each tissue. To minimize variability between tissues obtained from different animals, contractile responses were expressed as a percentage of the maximal response obtained with the final KCl challenge. […]
Data from different experiments were pooled and presented as a percentage of the maximal KCl responses (mean±S.E.). To estimate the drug induced rightward shifts in the concentration response curves, the curves were analyzed simultaneously using statistical nonlinear modeling methods similar to those described by Waud (1976), Equation 26, p. […] The Schild slope was determined to be 1, using statistical nonlinear modeling methods similar to those described by Waud 1976), Equation 27, p. […]
To estimate the drug-induced suppression of the maximal responses, sPLA2 responses (10 ug/ml) were determined in the absence and presence of drug, and percent suppression was calculated for each pair of tissues. […]

| IC50 [1] [nM] | Kb [2] [nM] | SMILES |
| --- | --- | --- |
| 33 ± 3 | 1470 ± 340 | CCc1c(Cc2ccccc2)c2ccc(OCCCC(=O)O)cc2n1CC(N)=O [Example 2, 4-[[1-(2-amino-2-oxoethyl)-2-ethyl-3-(phenylmethyl)-1H-indol-6-yl]oxy]butyric acid] |
| 13 ± 2 | 390 ± 120 | Cc1c(Cc2ccccc2)c2cccc(OCC(=O)O)c2n1CC(N)=O [Example 1, [[1-(2-Amino-2-oxoethyl)-2-methyl-3-(phenylmethyl)-1H-indol-7-yl]oxy]acetic acid] |
| 35 ± 8 | 415 ± 51 | CCc1c(Cc2ccccc2)c2ccc(OCCCP(=O)(O)O)cc2n1CC(N)=O [Example 3, [3-[[1-(2-amino-2-oxoethyl)-2-ethyl-3-(phenylmethyl)-1H-indol-6-yl]oxy]propyl]phosphonic acid] |
| 200 ± 90 | 1670 ± 280 | Cc1c(Cc2ccccc2)c2cccc(OCC(=O)O)c2n1CC(=O)NN [Example 4, [[1-(2-hydrazino-2-oxoethyl)-2-methyl-3-(phenylmethyl)-1H-indol-7-yl]oxy]acetic acid] |

From US5641800A, “1H-indole-1-functional sPLA2 inhibitors” (Eli Lilly and Company, priority 1995, dated 1997)
